The values that follow are results of earlier work, collected in patent US20100136109A1, “SUSTAINED RELEASE” (priority 2007, published 2010).

For orientation: half-life means the time needed for the level to fall by half in the phase considered.

For the series the following is noted: in vivo.

For `N[C@@H](Cc1cc(I)c(Oc2ccc(O)c(I)c2)c(I)c1)C(=O)O` [Formulation T3, triiodothyronine], the half-life entry is “approx 12 hours”. On to `N[C@@H](Cc1cc(I)c(Oc2cc(I)c(O)c(I)c2)c(I)c1)C(=O)O` [Formulation T4, thyroxine], for which the half-life was 170 h.
